In article PMC8112869, “Therapeutic inhibition of keratinocyte TRPV3 sensory channel by local anesthetic dyclonine” (eLife, 2021):

Target: T1, mouse TRPV3 (Mus musculus, UniProt Q8K424)
T1 sequence (Q8K424 1-791): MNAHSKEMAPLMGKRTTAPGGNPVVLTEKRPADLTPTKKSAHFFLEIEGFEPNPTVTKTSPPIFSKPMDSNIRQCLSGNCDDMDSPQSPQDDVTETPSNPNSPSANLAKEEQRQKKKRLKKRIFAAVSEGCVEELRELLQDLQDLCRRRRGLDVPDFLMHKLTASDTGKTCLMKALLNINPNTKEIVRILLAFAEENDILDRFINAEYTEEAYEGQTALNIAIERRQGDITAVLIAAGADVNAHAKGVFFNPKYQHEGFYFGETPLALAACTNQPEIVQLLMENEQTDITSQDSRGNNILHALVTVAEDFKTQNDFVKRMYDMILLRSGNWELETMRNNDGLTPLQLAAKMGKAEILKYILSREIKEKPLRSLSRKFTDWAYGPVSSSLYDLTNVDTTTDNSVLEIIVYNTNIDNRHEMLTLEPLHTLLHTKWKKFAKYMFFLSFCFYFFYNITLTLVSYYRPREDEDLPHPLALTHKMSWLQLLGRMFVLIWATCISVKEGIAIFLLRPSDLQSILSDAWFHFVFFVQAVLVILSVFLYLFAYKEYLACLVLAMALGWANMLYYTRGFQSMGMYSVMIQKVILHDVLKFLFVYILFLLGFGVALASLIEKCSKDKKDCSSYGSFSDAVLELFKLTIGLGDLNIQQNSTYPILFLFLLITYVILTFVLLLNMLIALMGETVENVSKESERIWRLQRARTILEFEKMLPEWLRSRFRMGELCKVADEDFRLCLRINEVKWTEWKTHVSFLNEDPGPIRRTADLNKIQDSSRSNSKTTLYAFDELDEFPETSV
Experiment: cell-based
Conditions: for EC50: EC50 of 2-APB for TRPV3 activation; for TRPV3 currents response, of control level: 100 µM 2-APB, –60 mV, after sensitization
From the text: The WT mouse TRPV3 (mTRPV3), human TRPV3 (hTRPV3), rat TRPV1, rat TRPV2, rat TRPM8, and mouse TRPA1 cDNAs were generously provided by Dr. Feng Qin (State University of New York at Buffalo, Buffalo, USA). The GFP-mTRPV3 WT and the mutants (mTRPV3-G573S and mTRPV3-G573C) in pcDNA4/TO vector were gifts from Dr. Michael X Zhu (The University of Texas Health Science Center at Houston, Houston, USA). The WT fTRPV3 was kindly provided by Dr. Makoto Tominaga (Department of Physiological Sciences, SOKENDAI, Okazaki, Japan). All mutations were made using the overlap-extension polymerase chain reaction method as previously described ([Tian et al., 2019]). The resulting mutations were then verified by DNA sequencing. HEK 293T and T-Rex 293 cells were grown in Dulbecco’s modified Eagle’s medium (DMEM, Thermo Fisher Scientific, MA) containing 4.5 mg/ml glucose, 10% heat-inactivated fetal bovine serum (FBS), 50 units/ml penicillin, and […], and were incubated at 37°C in a humidified incubator gassed with 5% CO2. For T-Rex 293, blasticidin S (10 μg/ml) was also included. Cells grown into ~80% confluence were transfected with the desired DNA constructs using either the standard calcium phosphate precipitation method or lipofectamine 2000 (Invitrogen, Carlsbad, CA) following the protocol provided by the manufacturer. Transfected HEK 293T cells were reseeded on 12 mm round glass coverslips coated by poly-L-lysine. Experiments took place ~12–24 hr after transfection.
Conventional whole-cell and excised patch-clamp recording methods were used. For the recombinant expressing system, green fluorescent EGFP was used as a surface marker for gene expression. Recording pipettes were pulled from borosilicate glass capillaries (World Precision Instruments) and fire-polished to a resistance between 2 and 4 MΩ when filled with internal solution containing (in mM) 140 CsCl, 2.0 MgCl2, 5 EGTA, and 10 HEPES, pH 7.4 (adjusted with CsOH). Bath solution contained (in mM): 140 NaCl, 5 KCl, 3 EGTA, and 10 HEPES, pH 7.4 adjusted with NaOH. For recordings in keratinocytes, the bath saline consisted of (in mM) 140 NaCl, 5 KCl, 2 MgCl2, 2 CaCl2, 10 glucoses, and 10 HEPES, pH 7.4 adjusted with NaOH, and the pipette solution contained (in mM) 140 CsCl, 5 EGTA, and 10 HEPES, pH 7.3 adjusted with CsOH. For single-channel recordings, the pipette solution and bath solution were symmetrical and contained (in mM) 140 NaCl, 5 KCl, 3 EGTA, and 10 HEPES, pH 7.4. Isolated cells were voltage clamped and held at –60 mV using an EPC10 amplifier with the Patchmaster software (HEKAElectronics, Lambrecht, Germany). For a subset of recordings, currents were amplified using an Axopatch 200B amplifier (Molecular Devices, Sunnyvale, CA) and recorded through a BNC-2090/MIO acquisition system (National Instruments, Austin, TX) using QStudio developed by Dr. Feng Qin at State University of New York at Buffalo. Whole-cell recordings were typically sampled at 5 kHz and filtered at 1 kHz, and single-channel recordings were sampled at 25 kHz and filtered at 10 kHz. The compensation of pipette series resistance and capacitance was compensated using the built-in circuitry of the amplifier (>80%) to reduce voltage errors. Exchange of external solution was performed using a gravity-driven local perfusion system. […] Dyclonine hydrochloride, MTSET and carvacrol were purchased from MCE (MedChemExpress). Unless otherwise noted, all chemicals were purchased from Sigma (Millipore Sigma, St. Louis, MO). Water-insoluble reagents were dissolved in pure ethanol or DMSO to make a stock solution and diluted into the recording solution at the desired final concentrations before the experiment. […] In the scratching behavior experiments, carvacrol was first dissolved in 10% ethanol and then diluted in normal saline before administration.

Row | IC50 | initial TRPV3 current (100 μM 2-APB with 5 μM dyclonine) | Hill coefficient nH of inhibition of TRPV3 currents (2-APB-evoked, WT mouse TRPV3) | inhibition at 10 µM (HEK-293T, read-out: inhibition of TRPV3 current (reduction in current amplitude)) | Structure (SMILES) | initial TRPV3 current (100 μM 2-APB without dyclonine) | EC50 (with 3 μM dyclonine) | EC50 (without dyclonine, after full sensitization) | repetitions to reach full sensitization level (repeated 100 μM 2-APB alone) | Hill coefficient nH of 2-APB activation (with 3 μM dyclonine) | Hill coefficient nH of 2-APB activation (without dyclonine) | TRPV3 currents response, of control level (5 µM dyclonine) | TRPV3 currents response, of control level (10 µM dyclonine) | repetitions to reach the current level of full sensitization (repeated 100 μM 2-APB with 5 μM dyclonine)
1 |  |  |  |  | NCCOB(c1ccccc1)c1ccccc1 [2-APB, 2-aminoethoxydiphenyl borate] | 86.43 ± 5.9 pA/pF | 22 ± 0.86 µM | 22.93 ± 0.02 µM | approximately eight | 1.7 ± 0.1 | 1.6 ± 0.1 |  |  | 
2 | 3.2 ± 0.24 µM | 31.12 ± 2.86 pA/pF | 2.2 ± 0.32 | 87% | CCCCOc1ccc(C(=O)CCN2CCCCC2)cc1 [dyclonine] |  |  |  |  |  |  | 30% ± 2% | 15% ± 3% | ~ 16 repetitions
